Laboratory results: patent US11952383B1, “Aza-podophyllotoxin analogues as potential anti-cancer agents” (KING FAISAL UNIVERSITY, priority 2023, dated 2024)
Where two headings read alike, the source gives them in different places.

How the values were obtained:
A-549 (lung cancer) = test: In vitro cytotoxic activity MTT assay, A-549; assay type: cell-based, human
Method: (§1) The cytotoxicity activity of the compounds of the current subject matter was assessed against three cancer cell lines such as A-549 (lung cancer), MCF-7 (breast cancer) and HL-60 (leukemia) cancer cells.
(§2) Compounds 1-15 were screened for their in vitro cytotoxic behavior utilizing a 3-(4,5-dimethyl-thiazol-2-yl)-2,5-diphenyltetrazolium bromide (MTT) assay against selected cancer human cell lines consisting of MCF-7 (human breast cancer), A-549 (lung cancer) and HL-60 (leukemia) (T. Mosmann, J. Immunol. Meth., 1983, 65, 55-63). The cells were cultured at 37° C. in RMPI1640 medium supplemented with 10% fetal bovine serum, 50 IU/mL penicillin, and 50 μg/mL streptomycin in a 5% CO2 incubator. All cells were sub-cultured 3 times/week by trypsinisation. Viable cells were seeded and allowed to adhere for 12 h before a test drug was added in 96-well plates at an initial density of 1.0×10^5 cells/mL. Tumour cell lines were separately exposed to various concentrations of the tested compounds followed by incubation at a temperature of 37° C. during 24 h inside a medium of fresh RMPI 1640. Cells were subsequently incubated at 37° C. using MTT at 0.5 mg/mL during 4 h. After removal of supernatant, formazan crystals were dissolved in isopropanol and the optical density was measured at 570 nm. Etopside and Cisplatin were used as a positive control.

[1] = system: MCF-7 (human breast cancer); test: In vitro cytotoxic activity MTT assay, MCF-7; assay type: cell-based
Method: as §1, §2

HL-60 (leukemia) = test: In vitro cytotoxic activity MTT assay, HL-60; assay type: cell-based, human
Method: as §1, §2

[2] = Homo sapiens, A549, A-549 lung cancer cells, MTT, 24 h incubation, read-out: Anti-proliferative activity: IC50 (μM) A-549
[3] = Homo sapiens, MCF7, MCF-7 breast cancer cells, MTT, 24 h incubation, read-out: Anti-proliferative activity: IC50 (μM) MCF-7
[4] = Homo sapiens, HL-60 leukemia cells, MTT, 24 h incubation, read-out: Anti-proliferative activity: IC50 (μM) HL-60
[5] = A-549 lung cancer cells, MTT, 24 h incubation, read-out: Anti-proliferative activity: IC50 (μM) A-549
[6] = MCF-7 breast cancer cells, MTT, 24 h incubation, read-out: Anti-proliferative activity: IC50 (μM) MCF-7
[7] = HL-60 leukemia cells, MTT, 24 h incubation, read-out: Anti-proliferative activity: IC50 (μM) HL-60

SMILES	IC50 (A-549 (lung cancer); [2])	IC50 [1, 3]	IC50 (HL-60 (leukemia); [4])	IC50 (A-549 (lung cancer); [5])	IC50 [1, 6]	IC50 (HL-60 (leukemia); [7])	IC50 (A-549 (lung cancer); Homo sapiens, A549, A-549 cancer cells, read-out: IC50 (concentration of cytotoxic agent which inhibits proliferation of the treated cells by 50%) against A-549)	IC50 ([1]; Homo sapiens, MCF7, MCF-7 cancer cells, read-out: IC50 (concentration of cytotoxic agent which inhibits proliferation of the treated cells by 50%) against MCF-7)	IC50 (HL-60 (leukemia); Homo sapiens, HL-60 cancer cells, read-out: IC50 (concentration of cytotoxic agent which inhibits proliferation of the treated cells by 50%) against HL-60)
COc1cc(C2C3=C(COC3=O)Nc3nc4ccccc4n32)cc(OC)c1OC (stereo not drawn) [Example 3, 11-(3,4,5-trimethoxyphenyl)-4,11-dihydro-1H,3H-benzo[4,5]imidazo[1,2-a]furo[3,4-d]pyrimidin-1-one]	0.081 µM	0.115 µM	0.128 µM						
O=C1OCC2=C1C(c1ccc(Cl)cc1)n1c(nc3ccccc31)N2 (stereo not drawn) [Example 14, 11-(4-chlorophenyl)-4,11-dihydro-1H,3H-benzo[4,5]imidazo[1,2-a]furo[3,4-d]pyrimidin-1-one]	0.058 µM	0.074 µM	0.069 µM						
CN(C)c1ccc(C2C3=C(COC3=O)Nc3nc4ccccc4n32)cc1 (stereo not drawn) [Example 8, 11-(4-(dimethylamino)phenyl)-4,11-dihydro-1H,3H-benzo[4,5]imidazo[1,2-a]furo[3,4-d]pyrimidin-1-one]	0.092 µM	0.087 µM	0.129 µM						
COc1cc(C2C3=C(COC3=O)Nc3nc4ccccc4n32)ccc1O (stereo not drawn) [Example 6, 11-(4-hydroxy-3-methoxyphenyl)-4,11-dihydro-1H,3H-benzo[4,5]imidazo[1,2-a]furo[3,4-d]pyrimidin-1-one]	0.095 µM	0.105 µM	0.133 µM						
O=C1OCC2=C1C(c1ccc(Br)cc1)n1c(nc3ccccc31)N2 (stereo not drawn) [Example 15, 11-(4-bromophenyl)-4,11-dihydro-1H,3H-benzo[4,5]imidazo[1,2-a]furo[3,4-d]pyrimidin-1-one]	0.105 µM	0.081 µM	0.092 µM						
CC(=O)Nc1ccc(C2C3=C(COC3=O)Nc3nc4ccccc4n32)cc1 (stereo not drawn) [Example 10, N-(4-(1-oxo-4,11-dihydro-1H,3H-benzo[4,5]imidazo[1,2-a]furo[3,4-d]pyrimidin-11-yl)phenyl)acetamide]	0.211 µM	0.374 µM	0.281 µM						
O=C1OCC2=C1C(c1ccc(O)c(O)c1)n1c(nc3ccccc31)N2 (stereo not drawn) [Example 5, 11-(3,4-dihydroxyphenyl)-4,11-dihydro-1H,3H-benzo[4,5]imidazo[1,2-a]furo[3,4-d]pyrimidin-1-one]	0.151 µM	0.154 µM	0.178 µM						
COc1cc([C@@H]2c3cc4c(cc3[C@@H](O[C@@H]3O[C@@H]5CO[C@@H](C)O[C@H]5[C@H](O)[C@H]3O)[C@H]3COC(=O)[C@H]23)OCO4)cc(OC)c1O [Etoposide, reference compound]				11.9 µM	32.8 µM	0.31 µM			
COc1ccc(C2C3=C(COC3=O)Nc3nc4ccccc4n32)cc1OC (stereo not drawn) [Example 2, 11-(3,4-dimethoxyphenyl)-4,11-dihydro-1H,3H-benzo[4,5]imidazo[1,2-a]furo[3,4-d]pyrimidin-1-one]	0.12 µM	0.104 µM	0.096 µM						
O=C1OCC2=C1C(c1ccc(F)cc1)n1c(nc3ccccc31)N2 (stereo not drawn) [Example 13, 11-(4-fluorophenyl)-4,11-dihydro-1H,3H-benzo[4,5]imidazo[1,2-a]furo[3,4-d]pyrimidin-1-one]	0.071 µM	0.045 µM	0.061 µM				0.071 µM	0.045 µM	0.061 µM
Cc1ccc(C2C3=C(COC3=O)Nc3nc4ccccc4n32)cc1 (stereo not drawn) [Example 7, 11-(p-tolyl)-4,11-dihydro-1H,3H-benzo[4,5]imidazo[1,2-a]furo[3,4-d]pyrimidin-1-one]	0.067 µM	0.069 µM	0.072 µM						
COc1cc(C2C3=C(CSC3=O)Nc3nc4ccccc4n32)cc(OC)c1OC (stereo not drawn) [Example 12, 11-(3,4,5-trimethoxyphenyl)-4,11-dihydro-1H,3H-benzo[4,5]imidazo[1,2-a]thieno[3,4-d]pyrimidin-1-one]	0.075 µM	0.111 µM	0.085 µM						
N.N.[Cl][Pt][Cl] [Cisplatin, reference compound]				9.25 µM	15.9 µM	1.16 µM			
Nc1ccc(C2C3=C(COC3=O)Nc3nc4ccccc4n32)cc1 (stereo not drawn) [Example 9, 11-(4-aminophenyl)-4,11-dihydro-1H,3H-benzo[4,5]imidazo[1,2-a]furo[3,4-d]pyrimidin-1-one]	0.123 µM	0.162 µM	0.143 µM						
COc1ccc(C2C3=C(COC3=O)Nc3nc4ccccc4n32)cc1 (stereo not drawn) [Example 1, 11-(4-methoxyphenyl)-4,11-dihydro-1H,3H-benzo[4,5]imidazo[1,2-a]furo[3,4-d]pyrimidin-1-one]	0.092 µM	0.126 µM	0.082 µM						
COc1cc(C2C3=C(CNC3=O)Nc3nc4ccccc4n32)cc(OC)c1OC (stereo not drawn) [Example 11, 11-(3,4,5-trimethoxyphenyl)-2,3,4,11-tetrahydro-1H-benzo[4,5]imidazo[1,2-a]pyrrolo[3,4-d]pyrimidin-1-one]	0.086 µM	0.125 µM	0.104 µM						
O=C1OCC2=C1C(c1ccc3c(c1)OCO3)n1c(nc3ccccc31)N2 (stereo not drawn) [Example 4, 11-(benzo[d][1,3]dioxol-5-yl)-4,11-dihydro-1H,3H-benzo[4,5]imidazo[1,2-a]furo[3,4-d]pyrimidin-1-one]	0.104 µM	0.097 µM	0.084 µM						
